{
  "source": "paper PMC11217349",
  "about": "“Development of Nurr1 agonists from amodiaquine by scaffold hopping and fragment growing” (Communications Chemistry, 2024)",
  "key": {"THRα": {"target": "T1, THRα (Homo sapiens, UniProt P10827)", "T1 construct": "chimeric receptors composed of the Gal4-DBD and the hinge region and LBD; expressed in transfected cells; host or cells: HEK293T", "T1 sequence (P10827 128-410 isoform P10827-2 limits assumed)": "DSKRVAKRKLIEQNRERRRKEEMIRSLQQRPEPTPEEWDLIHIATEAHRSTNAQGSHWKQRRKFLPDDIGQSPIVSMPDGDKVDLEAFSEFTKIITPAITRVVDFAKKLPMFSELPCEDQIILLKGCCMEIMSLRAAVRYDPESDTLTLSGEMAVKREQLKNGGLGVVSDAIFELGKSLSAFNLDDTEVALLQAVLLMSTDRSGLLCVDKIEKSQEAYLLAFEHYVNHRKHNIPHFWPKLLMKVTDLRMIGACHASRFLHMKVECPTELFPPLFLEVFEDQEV", "test": "Gal4-hybrid selectivity assay THRα", "assay_type": "cell-based", "conditions": "3 µM; reference agonist = 100%", "procedure": "(§1) Nurr1 modulation was determined in a Gal4 hybrid reporter gene assay in HEK293T cells (German Collection of Microorganisms and Cell Culture GmbH, DSMZ) using pFR-Luc (Stratagene, La Jolla, CA, USA; reporter), pRL-SV40 (Promega, Madison, WI, USA; internal control) and pFA-CMV-hNurr1-LBD[14], coding for the hinge region and ligand binding domain of the canonical isoform of human Nurr1. […] After 24 h, the medium was changed to Opti-MEM without supplements, and cells were transiently transfected using Lipofectamine LTX reagent (Invitrogen, Carlsbad, CA, USA) according to the manufacturer’s protocol. Five hours after transfection, cells were incubated with the test compounds in Opti-MEM supplemented with penicillin (100 U/mL), streptomycin (100 μg/mL), and 0.1% DMSO for 16 h before luciferase activity was measured using the Dual-Glo Luciferase Assay System (Promega) according to the manufacturer’s protocol on a Tecan Spark luminometer (Tecan Deutschland GmbH, Crailsheim, Germany). Firefly luminescence was divided by Renilla luminescence and multiplied by 1000 resulting in relative light units (RLU) to normalize for transfection efficiency and cell growth. Fold activation was obtained by dividing the mean RLU of the test compound by the mean RLU of the untreated control. All samples were tested in at least three biologically independent experiments in duplicates. […]"}, "Microsomal stability": {"test": "Microsomal stability", "assay_type": "in vitro ADME, rat", "conditions": "for AUC x10^5 (LC-MS peak area of 36 and its demethylated metabolites): incubation of 36 with rat liver microsomes, listed as 36-N(CH3)2", "procedure": "To determine microsomal stability, test compounds (10 μM) were incubated in 100 mM potassium phosphate buffer at pH 7.4 (total volume of 100 µL) containing 0.5 mg/mL male rat liver microsomes (Sprague-Dawley, no. M9066, Merck KGaA, Darmstadt) and 1 mM NADPH for 0, 15, 30, or 60 min. At the end of the incubation time, microsomal activity was terminated by the addition of 500 µL MeCN and subsequent centrifugation at 1700 g for 5 min. A reaction mixture containing heat-inactivated microsomes (95 °C, 10 min) was prepared as a control for each compound. 5 µL supernatant of each sample was analyzed and the remaining concentrations of the respective test compounds at each time point were determined by LC-MS/MS on an API-3200-QTrap (Sciex) with an Agilent Technologies 1100 series setup including a binary pump (G1311A), a degasser (G1322A), and a Shimadzu SIL 20 A HT autosampler under the control of Analyst 1.6 (Sciex). A XBridge BEH C18 (3.5 µm, 150 mm×3 mm, Waters, protected with a 0.5 µm frit) stationary phase was used in combination with a gradient method starting with 0.1% formic acid in water (A) and MeCN (B) as mobile phase (A:B = 80:20) for 6 min going to A: B = 50:50 after 8 min. 5 µL of supernatant diluted in mobile phase starting conditions was loaded onto the column, separated at a flow rate of 400 µL/min, and detected and quantified per Area of MRM (multiple reaction monitoring) with the following transitions: m/z 381.797/145.000 (34); m/z 395.125/158.200 (36); m/z 409.822/131.000 (41); m/z 407.838/171.100 (42)."}, "RXRα": {"target": "T2, RXRα (Homo sapiens, UniProt P19793)", "T2 construct": "chimeric receptors composed of the Gal4-DBD and the hinge region and LBD; expressed in transfected cells; host or cells: HEK293T", "T2 sequence (P19793 227-458 limits assumed)": "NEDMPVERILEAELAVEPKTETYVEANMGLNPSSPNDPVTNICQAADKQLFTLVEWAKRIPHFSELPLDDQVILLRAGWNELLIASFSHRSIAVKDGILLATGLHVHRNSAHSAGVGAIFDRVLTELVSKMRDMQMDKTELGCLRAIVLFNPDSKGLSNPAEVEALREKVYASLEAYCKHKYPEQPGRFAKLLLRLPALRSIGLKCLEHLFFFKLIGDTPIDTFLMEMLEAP", "test": "Gal4-hybrid selectivity assay RXRα", "assay_type": "cell-based", "conditions": "3 µM; reference agonist = 100%", "procedure": "as §1"}, "RARα": {"target": "T3, RARα (Homo sapiens, UniProt P10276)", "T3 construct": "chimeric receptors composed of the Gal4-DBD and the hinge region and LBD; expressed in transfected cells; host or cells: HEK293T", "T3 sequence (P10276 183-417 limits assumed)": "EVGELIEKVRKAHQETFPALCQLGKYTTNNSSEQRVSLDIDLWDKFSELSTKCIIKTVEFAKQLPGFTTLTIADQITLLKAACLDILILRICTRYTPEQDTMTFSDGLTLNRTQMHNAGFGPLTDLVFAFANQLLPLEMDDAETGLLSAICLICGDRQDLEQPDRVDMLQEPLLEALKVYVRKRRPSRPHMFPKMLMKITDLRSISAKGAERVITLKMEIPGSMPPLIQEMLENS", "test": "Gal4-hybrid selectivity assay RARα", "assay_type": "cell-based", "conditions": "3 µM; reference agonist = 100%", "procedure": "as §1"}, "VDR": {"target": "T4, VDR (Homo sapiens, UniProt P11473)", "T4 construct": "chimeric receptors composed of the Gal4-DBD and the hinge region and LBD; expressed in transfected cells; host or cells: HEK293T", "T4 sequence (P11473 127-423 limits assumed)": "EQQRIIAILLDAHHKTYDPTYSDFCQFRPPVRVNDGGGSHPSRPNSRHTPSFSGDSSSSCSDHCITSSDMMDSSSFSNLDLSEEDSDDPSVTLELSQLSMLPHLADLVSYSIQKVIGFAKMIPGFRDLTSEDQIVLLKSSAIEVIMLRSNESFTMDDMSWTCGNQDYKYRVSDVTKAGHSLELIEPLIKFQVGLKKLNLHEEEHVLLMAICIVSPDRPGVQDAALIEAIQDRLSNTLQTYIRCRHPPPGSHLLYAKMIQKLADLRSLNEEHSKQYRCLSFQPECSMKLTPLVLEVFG", "test": "Gal4-hybrid selectivity assay VDR", "assay_type": "cell-based", "conditions": "3 µM; reference agonist = 100%"}, "[1]": {"test": "Parallel artificial membrane permeability assay (PAMPA)", "assay_type": "in vitro ADME", "conditions": "500 µM donor, pH 7.4, 18 h", "procedure": "Passive lipid membrane diffusion of test compounds was determined using Merck Millipore MultiScreen Filter Plates (0.45 μm pore diameter, hydrophobic PVDF). The filter inserts were coated with 1% L-α-phosphatidylcholine (Fluka Analytical) in n-dodecan. The test compounds were then added to the donor compartment at a final concentration of 500 µM in a phosphate buffer pH 7.4 containing 5% DMSO with a total volume of 150 µL. The acceptor compartment was filled with 300 µL PBS containing 5% DMSO. Additionally, three equilibrium samples were prepared by directly adding the donor solution to the acceptor compartment for the calculation of log Pe values. The filter plates were incubated for 18 h before the test compound concentrations in the acceptor compartments and in the equilibrium, samples were determined by UV absorbance at 320 nm (34), 360 nm (36), 310 nm (41), or 315 nm (42) with external calibration in a 96 well quartz plate on a SpectraMax M2e microplate reader (Molecular Devices). logPe values were calculated according to the formula published by Sugano and colleagues."}, "LXRα": {"target": "T5, LXRα (Homo sapiens, UniProt Q13133)", "T5 construct": "chimeric receptors composed of the Gal4-DBD and the hinge region and LBD; expressed in transfected cells; host or cells: HEK293T", "T5 sequence (Q13133 209-447 limits assumed)": "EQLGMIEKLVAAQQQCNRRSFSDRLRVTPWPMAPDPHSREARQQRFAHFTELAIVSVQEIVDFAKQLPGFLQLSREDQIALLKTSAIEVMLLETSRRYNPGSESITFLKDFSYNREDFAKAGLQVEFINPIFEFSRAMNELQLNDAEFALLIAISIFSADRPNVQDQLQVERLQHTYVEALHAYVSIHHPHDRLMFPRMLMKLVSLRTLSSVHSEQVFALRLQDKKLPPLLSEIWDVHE", "test": "Gal4-hybrid selectivity assay LXRα", "assay_type": "cell-based", "conditions": "3 µM; reference agonist = 100%", "procedure": "as §1"}, "PPARγ": {"target": "T6, PPARγ (Homo sapiens, UniProt P37231)", "T6 construct": "chimeric receptors composed of the Gal4-DBD and the hinge region and LBD; expressed in transfected cells; host or cells: HEK293T", "T6 sequence (P37231 238-503 limits assumed)": "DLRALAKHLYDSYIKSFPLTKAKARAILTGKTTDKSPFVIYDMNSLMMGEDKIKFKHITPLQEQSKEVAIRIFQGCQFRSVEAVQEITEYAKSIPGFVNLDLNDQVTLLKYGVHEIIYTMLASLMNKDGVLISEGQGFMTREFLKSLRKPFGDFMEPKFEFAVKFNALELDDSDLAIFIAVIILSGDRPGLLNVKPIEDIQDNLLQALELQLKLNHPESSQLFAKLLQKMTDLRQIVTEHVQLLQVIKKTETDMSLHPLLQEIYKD", "test": "Gal4-hybrid selectivity assay PPARγ", "assay_type": "cell-based", "conditions": "3 µM; reference agonist = 100%", "procedure": "as §1"}, "PPARδ": {"target": "T7, PPARδ (Homo sapiens, UniProt Q03181)", "T7 construct": "chimeric receptors composed of the Gal4-DBD and the hinge region and LBD; expressed in transfected cells; host or cells: HEK293T", "T7 sequence (Q03181 211-439 limits assumed)": "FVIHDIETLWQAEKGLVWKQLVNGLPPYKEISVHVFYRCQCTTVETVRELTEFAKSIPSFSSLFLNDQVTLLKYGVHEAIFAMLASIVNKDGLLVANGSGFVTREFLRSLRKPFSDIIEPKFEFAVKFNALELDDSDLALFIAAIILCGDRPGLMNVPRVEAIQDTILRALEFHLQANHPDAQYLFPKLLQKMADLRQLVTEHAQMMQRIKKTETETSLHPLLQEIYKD", "test": "Gal4-hybrid selectivity assay PPARδ", "assay_type": "cell-based", "conditions": "3 µM; reference agonist = 100%", "procedure": "as §1"}, "FXR": {"target": "T8, FXR (Homo sapiens, UniProt Q96RI1)", "T8 construct": "chimeric receptors composed of the Gal4-DBD and the hinge region and LBD; expressed in transfected cells; host or cells: HEK293T", "T8 sequence (Q96RI1 262-486 limits assumed)": "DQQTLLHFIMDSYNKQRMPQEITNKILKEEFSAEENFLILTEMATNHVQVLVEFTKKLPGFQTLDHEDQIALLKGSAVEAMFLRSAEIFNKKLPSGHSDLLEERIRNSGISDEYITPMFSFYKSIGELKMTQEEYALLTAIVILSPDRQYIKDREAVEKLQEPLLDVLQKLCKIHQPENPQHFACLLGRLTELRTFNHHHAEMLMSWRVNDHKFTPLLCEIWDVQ", "test": "Gal4-hybrid selectivity assay FXR", "assay_type": "cell-based", "conditions": "3 µM; reference agonist = 100%", "procedure": "as §1"}},
  "note": "“And” between values parts separate entries of the source, which are not always exact repeats. Equal entries are not always repeated.",
  "data": [
    {"smiles": "Cc1nc2c(Cl)cccn2c1NC(=O)c1ccc(-c2ccc(N(C)C)cc2)o1", "note": "[Compound 36, N-(8-Chloro-2-methylimidazo[1,2-a]pyridin-3-yl)-5-(4-(dimethylamino)phenyl)furan-2-carboxamide]", "values": [
      {"measurement": "% rel. act. THRα", "setting": "THRα", "result": "0.070% and 0.082% and 0.063%"},
      {"measurement": "metabolism by rat liver microsomes (route)", "setting": "Microsomal stability", "result": "almost exclusively degraded by demethylation of the dimethylamino motif"},
      {"measurement": "AUC x10^5 (LC-MS peak area of 36 and its demethylated metabolites)", "setting": "Microsomal stability; time 0 min", "result": "7.35 x10^5 and 8.16 x10^5 and 6.56 x10^5 and 7.96 x10^5"},
      {"measurement": "AUC x10^5 (LC-MS peak area of 36 and its demethylated metabolites)", "setting": "Microsomal stability; time 15 min", "result": "1.47 x10^5 and 1.4 x10^5 and 1.5 x10^5 and 1.61 x10^5"},
      {"measurement": "half-life at 10 µM", "setting": "Microsomal stability; male, Sprague-Dawley, pH 7.4, rat liver microsomes, 10 µM, LCMS", "result": "6.3 ± 0.3", "unit": "min"},
      {"measurement": "% rel. act. RXRα", "setting": "RXRα", "result": "0.348% and 0.360% and 0.470%"},
      {"measurement": "% rel. act. RARα", "setting": "RARα", "result": "0.175% and 0.388% and 0.324%"},
      {"measurement": "% rel. act. VDR", "setting": "VDR", "result": "4.840% and 6.730% and 2.930%"},
      {"measurement": "logPe (PAMPA)", "setting": "[1]", "result": "-5.647 and -5.642 and -5.6601 and -5.6738"},
      {"measurement": "% rel. act. LXRα", "setting": "LXRα", "result": "2.022% and 2.102% and 1.670%"},
      {"measurement": "% rel. act. PPARγ", "setting": "PPARγ", "result": "10.373% and 9.960% and 8.281%"},
      {"measurement": "% rel. act. PPARδ", "setting": "PPARδ", "result": "4.502% and 5.181% and 2.926%"},
      {"measurement": "% rel. act. FXR", "setting": "FXR", "result": "0.311% and 0.333% and 0.363%"}
    ]}
  ]
}
